This is an account of results in patent publication US20150352108A1, “AMINO-PYRIMIDINE COMPOUNDS AS INHIBITORS OF TBK1 AND/OR IKK EPSILON” (Alzheimer's Institute of America, priority 2009, published 2015).

pIC50: −log10 of the molar value.

The experiment has as its target T1, IKKε (Homo sapiens, UniProt Q14164).
T1 construct: His-tag; made in house; host or cells: Sf9 insect cells
T1 sequence (Q14164 1-716): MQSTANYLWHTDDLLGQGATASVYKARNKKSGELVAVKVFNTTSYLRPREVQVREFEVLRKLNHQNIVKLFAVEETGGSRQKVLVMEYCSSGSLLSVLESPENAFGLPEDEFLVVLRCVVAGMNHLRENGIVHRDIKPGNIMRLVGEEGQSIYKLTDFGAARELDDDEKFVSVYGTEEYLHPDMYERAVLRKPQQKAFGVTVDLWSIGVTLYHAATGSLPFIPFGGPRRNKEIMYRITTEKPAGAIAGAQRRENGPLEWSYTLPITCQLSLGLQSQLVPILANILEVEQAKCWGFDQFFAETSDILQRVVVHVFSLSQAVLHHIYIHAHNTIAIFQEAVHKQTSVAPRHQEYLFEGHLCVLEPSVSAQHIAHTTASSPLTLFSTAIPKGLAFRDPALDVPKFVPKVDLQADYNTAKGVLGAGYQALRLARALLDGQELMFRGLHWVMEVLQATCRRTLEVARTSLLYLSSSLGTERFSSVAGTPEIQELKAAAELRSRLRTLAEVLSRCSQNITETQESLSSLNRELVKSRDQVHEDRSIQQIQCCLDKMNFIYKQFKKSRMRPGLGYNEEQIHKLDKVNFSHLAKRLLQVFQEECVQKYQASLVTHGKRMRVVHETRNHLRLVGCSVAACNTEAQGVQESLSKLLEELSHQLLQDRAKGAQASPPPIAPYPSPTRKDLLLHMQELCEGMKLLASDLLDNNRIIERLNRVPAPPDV
Put plainly: In-vitro IKKε kinase assay ([γ33]ATP filter-plate). The class given is biochemical. As to conditions: text bins; read-out: IC50 for inhibition of the kinase activity of IKKε. The method, then: IKKε enzyme was produced as a His-tag fusion in Sf9 cells and used at a final concentration of […]. TBK1 enzyme was produced as a His-tag fusion in Sf9 cells and used at a final concentration of 0.1 μg/ml. Kinase reactions were carried out in reaction buffer using myelin basic protein (Millipore, Ballerica, Mass.) or casein (Sigma, St. Louis, Mo.) as substrate at an ATP concentration equal to twice the Km,ATP value for each enzyme, corresponding to 32 μM ATP for IKKε and 60 μM ATP for TBK1, in the presence of 0.3 μCi [γ^33]ATP (PerkinElmer, Waltham, Mass.). Final enzyme concentrations were 0.1 or 0.015 μg/ml (IKKε) and 0.1 or 0.02 μg/ml (TBK1), representing “normal” and “sensitized” assay conditions respectively. Test compounds (or DMSO solvent as a control) were added prior to initiation of the reactions. Reactions were terminated after 30-45 minutes by adding 3% phosphoric acid. Terminated reactions were transferred to P-81 cellulose phosphate filterplates (Whatman, Inc., Piscataway, N.J.) and washed with 1% phosphoric acid on a vacuum apparatus. After air drying, scintillant (PerkinElmer, Waltham, Mass.) was added and the plates were read on a PerkinElmer TopCount NXT instrument. Counts were normalized to DMSO controls after background subtraction.
Usually pIC50 stands for the IC50 on a negative log10 scale, so that one unit is a factor of ten. Regarding `COc1ccc(-c2ccnc(Nc3ccc(NC(=O)NCCCO)cc3)n2)cc1C#N` [Example 7, 1-(4-{[4-(3-Cyano-4-methoxyphenyl)pyrimidin-2-yl]amino}phenyl)-3-(3-hydroxypropyl)urea], the pIC50 was 6.30 to 7.30. For the compound `COc1ccc(-c2ccnc(Nc3ccc(NC(=O)NC4CCCC4)cc3)n2)cc1C#N` [Example 8, 1-(4-{[4-(3-Cyano-4-methoxyphenyl)pyrimidin-2-yl]amino}phenyl)-3-cyclopentylurea], the pIC50 is 6.30 to 7.30. The figure for `COc1ccc(-c2ccnc(Nc3ccc(NC(=O)NCCO)cc3)n2)cc1C#N` [Example 9, 1-(4-{[4-(3-Cyano-4-methoxyphenyl)pyrimidin-2-yl]amino}phenyl)-3-(2-hydroxyethyl)urea] is 6.30 to 7.30. For the compound `COc1ccc(-c2ccnc(Nc3ccc(NC(=O)NCCCN)cc3)n2)cc1C#N` [Example 10, 1-(3-Aminopropyl)-3-(4-{[4-(3-cyano-4-methoxyphenyl)pyrimidin-2-yl]amino}phenyl) urea], the pIC50 was 6.30 to 7.30. The figure for `CCN1CCN(c2ccc(-c3ccnc(Nc4ccc(N5CCNC(=O)C5)c(OC)c4)n3)cc2C#N)CC1` [Example 36, 2-(4-Ethylpiperazin-1-yl)-5-(2-{[3-methoxy-4-(3-oxopiperazin-1-yl)phenyl]amino}pyrimidin-4-yl)benzonitrile] is 6.30 to 7.30; for `CC(C)NC(=O)N1CCC(Oc2ccc(-c3ccnc(Nc4ccc(N5CCOCC5)cc4)n3)cc2C#N)CC1` [Example 37, 4-[2-Cyano-4-(2-{[4-(morpholin-4-yl)phenyl]amino}pyrimidin-4-yl)phenoxy]-N-(propan-2-yl)piperidine-1-carboxamide] it is 6.30 to 7.30.

`N#Cc1cc(-c2ccnc(Nc3ccc(N4CCOCC4)cc3)n2)ccc1OCC1CNC1` [Example 39, 2-(azetidin-3-ylmethoxy)-5-(2-{[4-(morpholin-4-yl)phenyl]amino}pyrimidin-4-yl)benzonitrile]: the pIC50 is 7.30 to 8.30.

For the compound `COc1ccc(COc2ccc(-c3ccnc(Nc4ccc(N5CCOCC5)cc4)n3)cc2C#N)cc1` [Example 40, 2-[(4-Methoxybenzyl)oxy]-5-(2-{[4-(morpholin-4-yl)phenyl]amino}pyrimidin-4-yl)benzonitrile], the pIC50 is 6.30 to 7.30. As for `N#Cc1cc(-c2ccnc(Nc3ccc(N4CCOCC4)cc3)n2)ccc1OCC1CCN(C(=O)C2(N)CC2)CC1` [Example 42, 2-({1-[(1-aminocyclopropyl)carbonyl]piperidin-4-yl}methoxy)-5-(2-{[4-(morpholin-4-yl)phenyl]amino}pyrimidin-4-yl)benzonitrile], the pIC50 was 6.30 to 7.30. As for `N#Cc1cc(-c2ccnc(Nc3ccc(N4CCOCC4)cc3)n2)ccc1NC(=O)N1CCCCC1` [Example 44, N-[2-cyano-4-(2-{[4-(morpholin-4-yl)phenyl]amino}pyrimidin-4-yl)phenyl]piperidine-1-carboxamide], the negative logarithm of the IC50 (pIC50) was 6.30 to 7.30.

On to `N#Cc1cc(-c2ccnc(Nc3ccc(N4CCOCC4)cc3)n2)ccc1NC(=O)NC1CCC(O)CC1` (stereo not drawn) [Example 46, 1-[2-cyano-4-(2-{[4-(morpholin-4-yl)phenyl]amino}pyrimidin-4-yl)phenyl]-3-(4-hydroxycyclohexyl) urea], for which the pIC50 is 6.30 to 7.30. In the case of `CC(C)NC(=O)NCCOc1ccc(-c2ccnc(Nc3ccc(N4CCOCC4)cc3)n2)cc1C#N` [Example 47, 1-{2-[2-cyano-4-(2-{[4-(morpholin-4-yl)phenyl]amino}pyrimidin-4-yl)phenoxy]ethyl}-3-propan-2-ylurea], the pIC50 was 7.30 to 8.30. On to `N#Cc1cc(Cl)cc(-c2ccnc(Nc3ccc(N4CCOCC4)cc3)n2)c1` [Example 50, 3-Chloro-5-(2-{[4-(morpholin-4-yl)phenyl]amino}pyrimidin-4-yl)benzonitrile], for which the pIC50 is 7.30 to 8.30. Take `N#Cc1cc(-c2ccnc(Nc3ccc(N4CCOCC4)cc3)n2)ccc1NC(=O)N1CCOCC1` [Example 52, N-[2-cyano-4-(2-{[4-(morpholin-4-yl)phenyl]amino}pyrimidin-4-yl)phenyl]morpholin-4-carboxamide]: the pIC50 is 6.30 to 7.30. On to `CC(=O)N1CC(Oc2ccc(-c3ccnc(Nc4ccc(N5CCOCC5)cc4)n3)cc2C#N)C1` [Example 53, 2-[(1-acetylazetidin-3-yl)oxy]-5-(2-{[4-(morpholin-4-yl)phenyl]amino}pyrimidin-4-yl)benzonitrile], for which the pIC50 is 6.30 to 7.30. On to `N#Cc1cc(-c2ccnc(Nc3ccc(N4CCOCC4)cc3)n2)ccc1NC(=O)C1CCCC1` [Example 56, N-[2-cyano-4-(2-{[4-(morpholin-4-yl)phenyl]amino}pyrimidin-4-yl)phenyl] cyclopentane-carboxamide], for which the pIC50 was 7.30 to 8.30. As for `N#Cc1cc(-c2ccnc(Nc3ccc(N4CCOCC4)cc3)n2)ccc1OC1CCN(C(=O)[C@H](O)C(F)(F)F)CC1` [Example 57, 5-(2-{[4-(Morpholin-4-yl)phenyl]amino}pyrimidin-4-yl)-2-({1-[(2S)-3,3,3-trifluoro-2-hydroxypropanoyl]piperidin-4-yl}oxy)benzonitrile], the negative-log IC50 (pIC50) was 7.30 to 8.30.

Turning to `CN(C)CCOc1ccc(-c2ccnc(Nc3ccc(N4CCOCC4)cc3)n2)cc1C#N` [Example 58, 2-[2-(Dimethylamino)ethoxy]-5-(2-{[4-(morpholin-4-yl)phenyl]amino}pyrimidin-4-yl)benzonitrile], the pIC50 was 7.30 to 8.30. The figure for `N#Cc1cc(-c2ccnc(Nc3ccc(N4CCOCC4)cc3)n2)ccc1NC(=O)NC1CCCCC1` [Example 61, 1-[2-cyano-4-(2-{[4-(morpholin-4-yl)phenyl]amino}pyrimidin-4-yl)phenyl]-3-cyclohexylurea] is 6.30 to 7.30. The figure for `COc1ccc(Nc2nccc(-c3cccc(C#N)c3)n2)cc1F` [Example 66, 3-{2-[(3-Fluoro-4-methoxyphenyl)amino]pyrimidin-4-yl}benzonitrile] is 6.30 to 7.30; for `CN(C)C1CCN(c2ccc(-c3ccnc(Nc4ccc(N5CCOCC5)cc4)n3)cc2C#N)C1` (stereo not drawn) [Example 69] it is 6.30 to 7.30; for `CC(C)(O)C(=O)N1CCC(Oc2ccc(-c3ccnc(Nc4ccc(N5CCOCC5)cc4)n3)cc2C#N)CC1` [Example 74, 2-{[1-(2-Hydroxy-2-methylpropanoyl)piperidin-4-yl]oxy}-5-(2-{[4-(morpholin-4-yl)phenyl]amino}pyrimidin-4-yl)benzonitrile] it is 6.30 to 7.30. The same measure for `CCC(C)(C)C(=O)Nc1ccc(-c2ccnc(Nc3ccc(N4CCOCC4)cc3)n2)cc1C#N` [Example 77, N-[2-cyano-4-(2-{[4-(morpholin-4-yl)phenyl]amino}pyrimidin-4-yl)phenyl]-2,2-dimethylbutanamide]: 6.30 to 7.30; for `CN(C)C(=O)Nc1ccc(-c2ccnc(Nc3ccc(N4CCOCC4)cc3)n2)cc1C#N` [Example 81, 3-[2-cyano-4-(2-{[4-(morpholin-4-yl)phenyl]amino}pyrimidin-4-yl)phenyl]-1,1-dimethylurea]: 6.30 to 7.30; for `COC(=O)C(C)(C)COc1ccc(-c2ccnc(Nc3ccc(N4CCOCC4)cc3)n2)cc1C#N` [Example 84, methyl 3-[2-cyano-4-(2-{[4-(morpholin-4-yl)phenyl]amino}pyrimidin-4-yl)phenoxy]-2,2-dimethylpropanoate]: 6.30 to 7.30. Take `COc1ccc(-c2ccnc(Nc3ccc(N4CCCC4C(=O)N(C)C)c(OC)c3)n2)cc1C#N` (stereo not drawn) [Example 87]: the pIC50 was 7.30 to 8.30. In the case of `N#Cc1cc(-c2ccnc(Nc3ccc(N4CCOCC4)cc3)n2)ccc1NC(=O)NC1CCOCC1` [Example 92, 1-[2-cyano-4-(2-{[4-(morpholin-4-yl)phenyl]amino}pyrimidin-4-yl)phenyl]-3-(tetrahydro-2H-pyran-4-yl)urea], the pIC50 was 7.30 to 8.30. The figure for `N#Cc1cc(-c2ccnc(Nc3ccc(N4CCOCC4)cc3)n2)ccc1OCCNC(=O)CCO` [Example 95] is 6.30 to 7.30.

As to `N#Cc1cc(-c2ccnc(Nc3ccc(N4CCOCC4)cc3)n2)ccc1NC(=O)C1CCOCC1` [Example 97, N-[2-cyano-4-(2-{[4-(morpholin-4-yl)phenyl]amino}pyrimidin-4-yl)phenyl]tetrahydro-2H-pyran-4-carboxamide], the pIC50 was 6.30 to 7.30. The figure for `CO[C@@H](C)C(=O)N1CCC(Oc2ccc(-c3ccnc(Nc4ccc(N5CCOCC5)cc4)n3)cc2C#N)CC1` [Example 99] is 7.30 to 8.30.
